PubChem BioAssay (NCI)
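Following 48 hours of exposure in 96-well plates, responses at five concentrations were used to interpolate endpoints linearly. GI50: concentration for 50% inhibition of growth. The concentration for full growth arrest is given as TGI.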

How the values were obtained:
Test in all cases: growth of human tumour cells (NCI), 48 h
OVCAR-8 ovarian = system: OVCAR-8 ovarian
SK-OV-3 ovarian = system: SK-OV-3 ovarian
M14 melanoma = system: M14 melanoma
NCI-H522 lung = system: NCI-H522 lung
LOX IMVI melanoma = system: LOX IMVI melanoma
HOP-62 NSCLC = system: HOP-62 NSCLC
OVCAR-4 ovarian = system: OVCAR-4 ovarian
NCI-H23 lung = system: NCI-H23 lung
A498 renal = system: A498 renal
NCI-H460 lung = system: NCI-H460 lung

## C[C@@H](CN1CC(=O)NC(=O)C1)N1CC(=O)NC(=O)C1
OVCAR-8 ovarian
  TGI: 747 µM
SK-OV-3 ovarian
  TGI: 1870 µM
M14 melanoma
  TGI: 1160 µM
NCI-H522 lung
  TGI: 518 µM
LOX IMVI melanoma
  TGI: 729 µM
HOP-62 NSCLC
  TGI: 328 µM
OVCAR-4 ovarian
  TGI: 1110 µM
NCI-H23 lung
  TGI: 791 µM
A498 renal
  TGI: 698 µM
NCI-H460 lung
  TGI: 553 µM

## O=C1c2ccccc2NC1(c1ccccc1)c1c(-c2ccccc2)[nH]c2ccccc12 (centres undefined)
OVCAR-8 ovarian
  TGI: > 100 µM
SK-OV-3 ovarian
  TGI: > 100 µM
M14 melanoma
  TGI: > 100 µM
HOP-62 NSCLC
  TGI: > 100 µM
OVCAR-4 ovarian
  TGI: > 100 µM
NCI-H23 lung
  TGI: > 100 µM
A498 renal
  TGI: > 100 µM
NCI-H460 lung
  TGI: > 100 µM

## CC1=C(C(=O)Nc2cc(=O)n(C)c(=O)n2C)C(c2ccc([N+](=O)[O-])cc2)C(C(=O)Nc2cc(=O)n(C)c(=O)n2C)=C(C)N1
OVCAR-8 ovarian
  TGI: > 100 µM
SK-OV-3 ovarian
  TGI: > 100 µM
M14 melanoma
  TGI: > 100 µM
NCI-H522 lung
  TGI: > 100 µM
LOX IMVI melanoma
  TGI: > 100 µM
HOP-62 NSCLC
  TGI: > 100 µM
OVCAR-4 ovarian
  TGI: > 100 µM
NCI-H23 lung
  TGI: > 100 µM
A498 renal
  TGI: > 100 µM
NCI-H460 lung
  TGI: > 100 µM

## CC1(C)OB(O)OC1(C)C
OVCAR-8 ovarian
  TGI: > 100 µM
SK-OV-3 ovarian
  TGI: > 100 µM
M14 melanoma
  TGI: > 100 µM
NCI-H522 lung
  TGI: > 100 µM
LOX IMVI melanoma
  TGI: > 100 µM
HOP-62 NSCLC
  TGI: > 100 µM
OVCAR-4 ovarian
  TGI: > 100 µM
NCI-H23 lung
  TGI: > 100 µM
A498 renal
  TGI: > 100 µM
NCI-H460 lung
  TGI: > 100 µM

## O=S(=O)(N/N=C/c1cccc(Cl)c1Cl)c1ccccc1
OVCAR-8 ovarian
  TGI: > 100 µM
SK-OV-3 ovarian
  TGI: > 100 µM
M14 melanoma
  TGI: > 100 µM
LOX IMVI melanoma
  TGI: > 100 µM
HOP-62 NSCLC
  TGI: > 100 µM
OVCAR-4 ovarian
  TGI: > 100 µM
NCI-H23 lung
  TGI: > 100 µM
A498 renal
  TGI: > 100 µM
NCI-H460 lung
  TGI: > 100 µM

## CC(C)CC(=O)Nc1n[nH]c2c1CN(C(=O)C1CCN(C)CC1)C2(C)C
OVCAR-8 ovarian
  GI50: 1.3 µM
  TGI: > 10 µM
SK-OV-3 ovarian
  GI50: 2.53 µM
  TGI: > 10 µM
M14 melanoma
  GI50: 2.24 µM
  TGI: > 10 µM
NCI-H522 lung
  GI50: 0.467 µM
  TGI: 3.99 µM
LOX IMVI melanoma
  GI50: 0.209 µM
  TGI: 8.63 µM
HOP-62 NSCLC
  GI50: 1.2 µM
  TGI: > 10 µM
OVCAR-4 ovarian
  GI50: 2.54 µM
  TGI: > 10 µM
NCI-H23 lung
  GI50: 0.352 µM
  TGI: 5.4 µM
A498 renal
  GI50: 2.34 µM
  TGI: > 10 µM
NCI-H460 lung
  GI50: 0.309 µM
  TGI: > 10 µM

## CN1C(c2ccccc2)CS(=O)(=O)CS1(=O)=O (centres undefined)
OVCAR-8 ovarian
  TGI: > 100 µM
SK-OV-3 ovarian
  TGI: > 100 µM
M14 melanoma
  TGI: > 100 µM
LOX IMVI melanoma
  TGI: > 100 µM
HOP-62 NSCLC
  TGI: > 100 µM
OVCAR-4 ovarian
  TGI: > 100 µM
NCI-H23 lung
  TGI: > 100 µM
A498 renal
  TGI: > 100 µM
NCI-H460 lung
  TGI: > 100 µM

## CN(C)C/C=C/C(=O)Nc1cc2c(Nc3ccc(F)c(Cl)c3F)ncnc2cc1OCCOC(F)F
OVCAR-8 ovarian
  GI50: 0.972 µM
  TGI: 9.9 µM
SK-OV-3 ovarian
  GI50: < 0.01 µM
M14 melanoma
  GI50: 1.87 µM
  TGI: 6.2 µM
NCI-H522 lung
  GI50: < 0.0152 µM
  TGI: 1.35 µM
LOX IMVI melanoma
  GI50: 0.958 µM
  TGI: 2.25 µM
HOP-62 NSCLC
  GI50: 1.31 µM
  TGI: 5.61 µM
OVCAR-4 ovarian
  GI50: 1.18 µM
  TGI: 10.7 µM
NCI-H23 lung
  GI50: 1.23 µM
  TGI: 3.82 µM
A498 renal
  GI50: 0.282 µM
  TGI: 1.91 µM
NCI-H460 lung
  GI50: 2.34 µM
  TGI: 10.5 µM

## COc1ccc(/C=C2\CC(C)CC3C2=NN(C(C)=O)C3c2ccc(OC)cc2)cc1 (centres undefined)
OVCAR-8 ovarian
  GI50: 28.1 µM
  TGI: > 100 µM
SK-OV-3 ovarian
  GI50: 28.7 µM
  TGI: > 100 µM
NCI-H522 lung
  GI50: 21.5 µM
  TGI: 83.9 µM
LOX IMVI melanoma
  GI50: 17.6 µM
  TGI: 38.3 µM
HOP-62 NSCLC
  GI50: 20 µM
  TGI: 41.4 µM
OVCAR-4 ovarian
  GI50: 12.2 µM
  TGI: 36.5 µM
NCI-H23 lung
  GI50: 19.6 µM
  TGI: 45.2 µM
A498 renal
  GI50: 17 µM
  TGI: 33.1 µM
NCI-H460 lung
  GI50: 18.5 µM
  TGI: 48.7 µM

## O=Cc1ccc(-c2ccc(-c3nc4ccccc4o3)cc2)s1
OVCAR-8 ovarian
  GI50: 35 µM
  TGI: > 100 µM
SK-OV-3 ovarian
  GI50: 30.8 µM
  TGI: 99.5 µM
M14 melanoma
  GI50: 26.6 µM
  TGI: 70 µM
NCI-H522 lung
  GI50: 47.3 µM
  TGI: > 100 µM
LOX IMVI melanoma
  GI50: 16.7 µM
  TGI: 36 µM
HOP-62 NSCLC
  GI50: 27.9 µM
  TGI: 82 µM
OVCAR-4 ovarian
  GI50: 34.9 µM
  TGI: > 100 µM
NCI-H23 lung
  GI50: 30.2 µM
  TGI: > 100 µM
NCI-H460 lung
  GI50: 23.7 µM
  TGI: 85.3 µM

## CN(C)CCSc1cccc(-c2cc(-c3cccc(SCCN(C)C)c3)nc(SCCN(C)C)n2)c1
OVCAR-8 ovarian
  TGI: 2.78 µM
SK-OV-3 ovarian
  TGI: 45.5 µM
M14 melanoma
  TGI: 2.99 µM
NCI-H522 lung
  TGI: 2.98 µM
LOX IMVI melanoma
  TGI: 3.03 µM
HOP-62 NSCLC
  TGI: 30.2 µM
OVCAR-4 ovarian
  TGI: 3.04 µM
NCI-H23 lung
  TGI: 15.3 µM
NCI-H460 lung
  TGI: 3.46 µM

## CN(C)c1ncc(-c2ccc(C(F)(F)F)cc2)c(NC2CCCCCC2)n1
OVCAR-8 ovarian
  GI50: 25.8 µM
  TGI: > 100 µM
SK-OV-3 ovarian
  GI50: 29 µM
  TGI: 95.4 µM
M14 melanoma
  GI50: 24 µM
  TGI: > 100 µM
NCI-H522 lung
  GI50: 11.2 µM
  TGI: 30.2 µM
HOP-62 NSCLC
  GI50: 24.5 µM
  TGI: 61 µM
OVCAR-4 ovarian
  GI50: 12.9 µM
  TGI: 56.6 µM
NCI-H23 lung
  GI50: 17.3 µM
  TGI: 57.3 µM
A498 renal
  GI50: 12.4 µM
  TGI: 29.4 µM
NCI-H460 lung
  GI50: 16.2 µM
  TGI: 35.9 µM

## COC(=O)CCC(=O)Nc1cc(Cl)ccc1Cl
OVCAR-8 ovarian
  TGI: > 100 µM
SK-OV-3 ovarian
  TGI: > 100 µM
M14 melanoma
  TGI: > 100 µM
NCI-H522 lung
  TGI: > 100 µM
LOX IMVI melanoma
  TGI: > 100 µM
HOP-62 NSCLC
  TGI: > 100 µM
OVCAR-4 ovarian
  TGI: > 100 µM
NCI-H23 lung
  TGI: > 100 µM
NCI-H460 lung
  TGI: > 100 µM

## O=C(O)c1cc2ccccc2c(N=Nc2cc(C(F)(F)F)ccc2Cl)c1O
OVCAR-8 ovarian
  TGI: > 100 µM
SK-OV-3 ovarian
  TGI: > 100 µM
M14 melanoma
  TGI: > 100 µM
NCI-H522 lung
  TGI: > 100 µM
HOP-62 NSCLC
  TGI: > 100 µM
OVCAR-4 ovarian
  TGI: > 100 µM
NCI-H23 lung
  TGI: > 100 µM
NCI-H460 lung
  TGI: > 100 µM

## O=C(O)c1cc2ccccc2oc1=O
OVCAR-8 ovarian
  TGI: > 100 µM
M14 melanoma
  TGI: > 100 µM
NCI-H522 lung
  TGI: > 100 µM
LOX IMVI melanoma
  TGI: > 100 µM
HOP-62 NSCLC
  TGI: > 100 µM
OVCAR-4 ovarian
  TGI: > 100 µM
NCI-H23 lung
  TGI: > 100 µM
A498 renal
  TGI: > 100 µM
NCI-H460 lung
  TGI: > 100 µM

## COc1ccc(NC(=O)CC/C(CC(=O)C(C)(C)C)=N\NC(=O)C(N)=O)cc1
OVCAR-8 ovarian
  TGI: > 100 µM
SK-OV-3 ovarian
  TGI: > 100 µM
M14 melanoma
  TGI: > 100 µM
LOX IMVI melanoma
  TGI: > 100 µM
HOP-62 NSCLC
  TGI: > 100 µM
OVCAR-4 ovarian
  TGI: > 100 µM
NCI-H23 lung
  TGI: > 100 µM
NCI-H460 lung
  TGI: > 100 µM

## COc1ccc(C(=O)C(c2ccc(OC)cc2)C2OC(=O)C(Cl)=C2Cl)cc1 (centres undefined)
OVCAR-8 ovarian
  TGI: > 100 µM
SK-OV-3 ovarian
  TGI: > 100 µM
M14 melanoma
  TGI: > 100 µM
NCI-H522 lung
  TGI: > 100 µM
LOX IMVI melanoma
  TGI: > 100 µM
HOP-62 NSCLC
  TGI: > 100 µM
OVCAR-4 ovarian
  TGI: > 100 µM
NCI-H23 lung
  TGI: > 100 µM
NCI-H460 lung
  TGI: > 100 µM

## CC1=C(C(=O)NCc2ccccc2)C(c2ccc([N+](=O)[O-])cc2)C(C(=O)NCc2ccccc2)=C(C)N1
OVCAR-8 ovarian
  TGI: > 100 µM
M14 melanoma
  TGI: 48.5 µM
NCI-H522 lung
  TGI: > 100 µM
LOX IMVI melanoma
  TGI: 44.1 µM
HOP-62 NSCLC
  TGI: > 100 µM
OVCAR-4 ovarian
  TGI: 47.9 µM
NCI-H23 lung
  TGI: > 100 µM
A498 renal
  TGI: > 100 µM
NCI-H460 lung
  TGI: > 100 µM

## O=C(O)/C(Cl)=C(\Cl)C(=O)NC1C2CC3CC(C2)CC1C3 (centres undefined)
OVCAR-8 ovarian
  TGI: > 100 µM
SK-OV-3 ovarian
  TGI: > 100 µM
M14 melanoma
  TGI: > 100 µM
NCI-H522 lung
  TGI: > 100 µM
LOX IMVI melanoma
  TGI: > 100 µM
HOP-62 NSCLC
  TGI: > 100 µM
OVCAR-4 ovarian
  TGI: > 100 µM
NCI-H23 lung
  TGI: > 100 µM
A498 renal
  TGI: > 100 µM
